Measured values from patent US20140186329A1, “POLYPHENOL ANALOGS TO TREAT ISCHEMIA” (priority 2011, published 2014).
pEC50: −log10 of the molar value. Where two headings read alike, the source gives them in different places.

Tests used:
[1] = TEAC, ABTS decolorization assay; details: relative to Trolox
Description: TEAC values for the flavonoids were determined as described (Maher, P. et al., Free Radical Research. (2006), supra). Briefly, 250 μl of 2,2′-azinobis(3-ethylbenzothiazoline 6-sulfonate) (ABTS) treated overnight with potassium persulfate and diluted to an OD of ˜0.7 at 734 nm was added to 2.5 μl of a derivative solution in ethanol. The change in absorbance due to the reduction of the ABTS radical cation was measured at 734 nm for 4 min. To calculate the TEAC, the gradient of the plot of the percentage inhibition of absorbance vs. concentration for the derivative in question was divided by the gradient of the plot for Trolox.
(§1) Cell viability was determined after 24 hr by the MTT assay. The ability to maintain GSH (GSH) was determined by treating HT22 cells with different doses of each derivative (1-10 μM) in the presence of 5 mM glutamate. After 24 hr cell extracts were prepared and analyzed for total GSH. Fisetin (10 μM) was used as a positive control. The ability to induce PC12 cell differentiation (PC 12 diff' n) was determined by treating PC12 cells in N2 medium with different doses of each derivative (1-10 μM) for 24 hr. Differentiation was assessed by visual inspection with Fisetin (10 μM) as a positive control. Anti-inflammatory activity (microglia) was assessed in N9 microglial cells treated with bacterial lipopolysaccharide alone or in the presence different doses of each derivative (1-10 μM) for 24 hr. Fisetin was used as a positive control. TEAC values, a measure of direct antioxidant activity, were determined using the ABTS decolorization assay.

HT22 cells [2] = experiment: In vitro ischemia assay (HT22 cell IAA assay, MTT); assay type: cell-based, mouse
Description: Cell viability was determined by a modified version of 3-(4,5-dimethylthiazol-2-yl)-2,5-diphenyl tetrazolium bromide (MTT) assay based on the standard procedure (Maher, et al., Brain Research. (2007), supra). Cells were seeded onto 96-well microtiter plates at a density of 5×10^3 cells per well. For the in vitro ischemia assay, the next day, the medium was replaced with DMEM supplemented with 7.5% DFCS and the cells were treated with 20 μM iodoacetic acid (IAA) alone or in the presence of the different derivatives. After 2 hr the medium in each well was aspirated and replaced with fresh medium without IAA but containing the derivatives. 20 hr later, the medium in each well was aspirated and replaced with fresh medium containing 2.5 μg/ml MTT. After 4 hr of incubation at 37° C., the cells were solubilized with 100 μl of a solution containing 50% dimethylformamide and 20% SDS (pH 4.7). The absorbance at 570 nm was measured on the following day with a microplate reader (Molecular Devices). Results were confirmed by visual inspection of the wells. Controls included compound alone to test for toxicity and compound with no cells to test for interference with the assay chemistry.
For a primary screen, an in vitro ischemia model in combination with the HT22 nerve cell line (Maher, et al., Brain Research. (2007) 1173, 117-125) was chosen. […] To induce ischemia in the HT22 cells we used iodoacetic acid (IAA), a well-known, irreversible inhibitor of the glycolytic enzyme glyceraldehyde 3-phosphate dehydrogenase (G3PDH) (Winkler, et al., Exp. Eye Res. (2003) 76, 715-723). IAA has been used in a number of other studies to induce ischemia in nerve cells (Reshef, et al., Neurosci. Lett. (1997) 238, 37-40; Sperling, et al., Neursci. Lett. (2003) 351, 137-140; Rego, et al., Neurochem. Res. (1999) 24, 351-358; Sigalov, et al., J. Mol. Neurosci. (2000) 15, 147-154; and Reiner, et al., Neurosci. Lett. (1990) 119, 175-178), including several recent screens for neuroprotective molecules (Biraboneye, et al., J. Med. Chem. (2009) 52 (14), 4358-4369; Biraboneye, et al., Chem. Med. Chem. (2010) 5 (1), 79-85). The changes following IAA treatment of neural cells are very similar to those seen in animal models of ischemic stroke (Lipton, et al., Physiol. Rev. (1999) 79, 1431-1568) and include alterations in membrane potential (Reiner, et al., Neurosci. Lett. (1990) 119, 175-178), breakdown of phospholipids (Taylor, et al., J. Pharmacol. Exp. Ther. (1996) 276, 1224-1231), loss of ATP (Winkler, et al., Exp. Eye Res. (2003) 76, 715-723; Sperling, et al., Neursci. Lett. (2003) 351, 137-140) and an increase in reactive oxygen species (ROS) (Taylor, et al., J. Pharmacol. Exp. Ther. (1996), supra; and Sperling, et al., Neursci. Lett. (2003) 351, 137-140).
as §1
For rapid screening of chemical libraries, a mouse HT22 hippocampal cell death assay induced by addition of the compound iodoacetic acid (IAA) was used. IAA is a well-known, irreversible inhibitor of the glycolytic enzyme glyceraldehyde 3-phosphate dehydrogenase (G3PDH). […]

HT22 cells [3] = experiment: Maintenance of total GSH in the presence of glutamate; assay type: cell-based, mouse; details: derivative 1-10 μM, 5 mM glutamate, 24 hr
Description: Total intracellular glutathione was determined by a chemical assay as described (Maher, P. et al., Free Radical Research. (2006) 40 (10), 1105-1111).
(§2) Three secondary screens allowed assessment of three key activities of Fisetin that are highly relevant to stroke, as well as other neurological disorders: maintenance of glutathione (GSH), the major endogenous cellular antioxidant, inhibition of LPS-induced microglial activation, an indicator of anti-inflammatory activity and PC 12 cell differentiation, a measure of neurotrophic activity. All of these activities are relevant to the nerve cell loss seen in stroke (Gelderblom, et al., Stroke. 2009, 40 (5), 1849-1857; Pandya, et al., Cent. Nerv. Syst. Agents. Med. Chem. (2011) April 27; Lewerenz, et al., J. Neurochem. (2010) 113 (2), 502-504). […] To assess GSH maintenance, total intracellular GSH levels after a 24 hr treatment with the compound both in the absence and presence of glutamate, an inducer of GSH loss and oxidative stress (Tan, et al., Curr. Top. Med. Chem. (2001) 1, 497-506; Maher, et al., Free Radical Research. (2006) 40 (10), 1105-1111) was measured. Inhibition of LPS-induced microglial activation was determined by treating N9 mouse microglial cells with LPS alone and in the presence of the compounds and assaying NO release into the medium 24 hr later (Zheng, et al., Int. Immunopharmacol. (2008) 8, (3), 484-494). PC12 cell differentiation was determined by treating PC12 cells with the compounds and looking at neurite outgrowth after 24 hr. In all cases, Fisetin was used as a positive control (Sagara, et al., J. Neurochem. (2004) 90, 1144-1155).
as §1

PC12 cells = experiment: PC12 cell differentiation (neurite outgrowth); assay type: cell-based; details: N2 medium, derivative 1-10 μM, 24 hr, visual inspection
Description: PC 12 cells in N2 medium were treated with the derivatives (1-10 μM) or Fisetin (10 μM) as a positive control for 24 hr at which time the cells were scored for the presence of neurites. PC12 cells produce neurites much more rapidly when treated in N2 medium than when treated in regular growth medium. For each treatment, 100 cells in each of three separate fields were counted. Cells were scored positive if one or more neurites>1 cell body diameter in length were observed.
as §2, §1

[4] = Mus musculus, HT-22, HT22 cells, 20 μM IAA for 2 hr, viability after 24 hr by MTT, read-out: EC50 in vitro ischemia
[5] = HT22 cells, 20 μM IAA for 2 hr, viability after 24 hr by MTT
[6] = Mus musculus, HT-22, HT22 cells, 20 μM IAA, read-out: HT22 Cell IAA assay EC50

CCOc1ccc(-c2oc3cc(C)c(C)cc3c(=O)c2O)cc1OCC [CMS-025, 2-(3,4-diethoxyphenyl)-3-hydroxy-6,7-dimethyl-4H-chromen-4-one]
TEAC [1]: 0.84
pEC50 (HT22 cells [2]; [4]): 6.30
GSH (ability to maintain GSH) (HT22 cells [3]): no
PC12 diff'n (ability to induce PC12 cell differentiation) (PC12 cells): no

Cc1cc2oc(-c3ccc(O)c(O)c3)c(O)c(=O)c2cc1C [CMS-027, 2-(3,4-dihydroxyphenyl)-3-hydroxy-6,7-dimethyl-4H-chromen-4-one]
TEAC [1]: 1.89
pEC50 (HT22 cells [2]; [4]): 6.30
GSH (ability to maintain GSH) (HT22 cells [3]): no
PC12 diff'n (ability to induce PC12 cell differentiation) (PC12 cells): no

Cc1cc2oc(-c3ccc(O)c(O)c3)cc(=O)c2cc1C [CMS-028, 2-(3,4-dihydroxyphenyl)-6,7-dimethyl-4H-chromen-4-one]
TEAC [1]: 0.27
pEC50 (HT22 cells [2]; [4]): 6.60
fold enhancement of neuroprotective activity relative to CMS-027 (HT22 cells [2]; in vitro ischemia, HT22/IAA): 2 fold
GSH (ability to maintain GSH) (HT22 cells [3]): no
PC12 diff'n (ability to induce PC12 cell differentiation) (PC12 cells): no

CCOc1ccc(/C=C/C(=O)c2ccc3ccccc3c2O)cc1OCC [CMS-032, (E)-3-(3,4-diethoxyphenyl)-1-(1-hydroxynaphthalen-2-yl)prop-2-en-1-one]
TEAC [1]: 0.12
EC50 in vitro ischemia (μM) (HT22 cells [2]; [5]): no
GSH (ability to maintain GSH) (HT22 cells [3]): no
PC12 diff'n (ability to induce PC12 cell differentiation) (PC12 cells): no

CCOc1ccc(-c2oc3c(ccc4ccccc43)c(=O)c2O)cc1OCC [CMS-036, 2-(3,4-diethoxyphenyl)-3-hydroxy-4H-benzo[h]chromen-4-one]
TEAC [1]: 0.15
pEC50 (HT22 cells [2]; [4]): 6.52
GSH (ability to maintain GSH) (HT22 cells [3]): no
PC12 diff'n (ability to induce PC12 cell differentiation) (PC12 cells): no

CCOc1ccc(-c2cc(=O)c3ccc4ccccc4c3o2)cc1OCC [CMS-038, 2-(3,4-diethoxyphenyl)-4H-benzo[h]chromen-4-one]
TEAC [1]: 0.2
EC50 in vitro ischemia (μM) (HT22 cells [2]; [5]): no
GSH (ability to maintain GSH) (HT22 cells [3]): no
PC12 diff'n (ability to induce PC12 cell differentiation) (PC12 cells): no

O=c1c(O)c(-c2ccc(O)c(O)c2)oc2ccc3ccccc3c12 [CMS-041, 3-(3,4-dihydroxyphenyl)-2-hydroxy-1H-benzo[h]chromen-1-one]
TEAC [1]: 1.26
pEC50 (HT22 cells [2]; [4]): 6.60
GSH (ability to maintain GSH) (HT22 cells [3]): no
PC12 diff'n (ability to induce PC12 cell differentiation) (PC12 cells): yes

COc1cc(-c2cc(=O)c3cc(C)c(C)cc3o2)ccc1OCc1ccccc1 [CMS-058, 2-(4-(benzyloxy)-3-methoxyphenyl)-6,7-dimethyl-4H-chromen-4-one]
TEAC [1]: 0.09
pEC50 (HT22 cells [2]; [4]): 6.30
GSH (ability to maintain GSH) (HT22 cells [3]): no
PC12 diff'n (ability to induce PC12 cell differentiation) (PC12 cells): no

COc1cc(/C=C/C(=O)c2ccc3ccccc3c2O)ccc1OCc1ccccc1 [CMS-063, (E)-3-(4-(benzyloxy)-3-methoxyphenyl)-1-(1-hydroxynaphthalen-2-yl)prop-2-en-1-one]
TEAC [1]: 0.15
pEC50 (HT22 cells [2]; [4]): 6.30
GSH (ability to maintain GSH) (HT22 cells [3]): no
PC12 diff'n (ability to induce PC12 cell differentiation) (PC12 cells): no

COc1cc(-c2cc(=O)c3cc(C)c(C)cc3o2)ccc1O [CMS-064, 2-(4-hydroxy-3-methoxyphenyl)-6,7-dimethyl-4H-chromen-4-one]
TEAC [1]: 0.12
pEC50 (HT22 cells [2]; HT22 cells, 20 μM IAA, read-out: HT22 Cell IAA assay EC50): 7.47
pEC50 (HT22 cells [2]; [4]): 7.52
pEC50 (HT22 cells [2]; [6]): > 7.40
GSH (ability to maintain GSH) (HT22 cells [3]): no
PC12 diff'n (ability to induce PC12 cell differentiation) (PC12 cells): no

COc1cc(-c2oc3c(ccc4ccccc43)c(=O)c2O)ccc1OCc1ccccc1 [CMS-065, 2-(4-(benzyloxy)-3-methoxyphenyl)-3-hydroxy-4H-benzo[h]chromen-4-one]
TEAC [1]: 0
pEC50 (HT22 cells [2]; [4]): 7.10
pEC50 (HT22 cells [2]; [6]): 7.09
GSH (ability to maintain GSH) (HT22 cells [3]): no
PC12 diff'n (ability to induce PC12 cell differentiation) (PC12 cells): yes

COc1cc(-c2oc3c(ccc4ccccc43)c(=O)c2O)ccc1O [CMS-070, 3-hydroxy-2-(4-hydroxy-3-methoxyphenyl)-4H-benzo[h]chromen-4-one]
TEAC [1]: 0.63
pEC50 (HT22 cells [2]; [4]): < 6.30
GSH (ability to maintain GSH) (HT22 cells [3]): no
PC12 diff'n (ability to induce PC12 cell differentiation) (PC12 cells): yes
